Data from ChEMBL document CHEMBL1201862, “PubChem BioAssay data set” (2004).
Active and inactive are the calls of the source.

Experiments:
[1] = inhibitors of intracellular T. cruzi replication, confirmation, NIH3T3 host cells, beta-gal luminescence (AID 2044); format: functional, cell-based;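 also: intracellular parasites grown in NIH/3T3 mouse fibroblasts as host cells; luminescent beta-galactosidase reporter signal from transgenic T. cruzi replicating inside host cells; inhibitors lower the luminescence signal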
[2] = cytotoxicity toward NIH3T3 fibroblasts, dose response, counter-screen, cell-based, ATP luminescence, mouse fibroblasts (AID 2010); format: functional;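 also: cells exposed to compound for about 90 hours before reading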
[3] = target: T1, Rac GTPase-activating protein 1 (Homo sapiens, UniProt Q9H0H5); test: MgcRacGAP GTPase-activating activity inhibitors, confirmation, biochemical, ADP Hunter fluorescence, primary and confirmatory (AID 624330); format: functional
T1 sequence (Q9H0H5 whole entry): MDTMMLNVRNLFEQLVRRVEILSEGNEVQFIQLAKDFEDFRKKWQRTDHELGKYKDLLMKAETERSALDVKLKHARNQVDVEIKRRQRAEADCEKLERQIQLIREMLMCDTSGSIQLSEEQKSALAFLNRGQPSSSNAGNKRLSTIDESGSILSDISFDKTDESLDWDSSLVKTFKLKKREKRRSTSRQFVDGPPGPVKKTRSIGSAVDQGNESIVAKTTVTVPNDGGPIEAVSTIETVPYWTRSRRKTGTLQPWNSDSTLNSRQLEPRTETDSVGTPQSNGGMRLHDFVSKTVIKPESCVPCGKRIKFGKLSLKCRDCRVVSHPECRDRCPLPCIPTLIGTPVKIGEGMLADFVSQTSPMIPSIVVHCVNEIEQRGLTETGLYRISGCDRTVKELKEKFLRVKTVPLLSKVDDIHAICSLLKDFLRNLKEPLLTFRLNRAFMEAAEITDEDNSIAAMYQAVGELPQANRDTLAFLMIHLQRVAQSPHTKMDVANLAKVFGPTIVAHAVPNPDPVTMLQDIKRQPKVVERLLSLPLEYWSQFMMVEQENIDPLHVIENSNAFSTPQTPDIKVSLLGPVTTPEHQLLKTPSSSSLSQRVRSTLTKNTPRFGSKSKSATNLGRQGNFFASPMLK

[4] = target: T2, DNA repair protein RAD52 homolog (Homo sapiens, UniProt P43351); format: functional, biochemical
T2 sequence (P43351 whole entry): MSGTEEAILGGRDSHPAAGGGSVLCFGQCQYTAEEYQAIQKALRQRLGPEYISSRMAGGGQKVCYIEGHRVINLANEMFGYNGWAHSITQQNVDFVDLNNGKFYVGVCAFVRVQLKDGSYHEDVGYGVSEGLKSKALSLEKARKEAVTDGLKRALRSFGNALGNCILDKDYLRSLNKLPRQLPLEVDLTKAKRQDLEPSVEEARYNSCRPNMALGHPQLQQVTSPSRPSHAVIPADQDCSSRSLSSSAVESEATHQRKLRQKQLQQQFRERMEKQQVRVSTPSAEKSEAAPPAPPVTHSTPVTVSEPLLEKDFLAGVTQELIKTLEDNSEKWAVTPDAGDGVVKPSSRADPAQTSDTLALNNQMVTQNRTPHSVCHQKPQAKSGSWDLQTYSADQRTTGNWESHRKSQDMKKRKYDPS

[5] = target: T3, Histone-lysine N-methyltransferase NSD2 (Homo sapiens, UniProt O96028); format: biochemical
T3 sequence (O96028 whole entry): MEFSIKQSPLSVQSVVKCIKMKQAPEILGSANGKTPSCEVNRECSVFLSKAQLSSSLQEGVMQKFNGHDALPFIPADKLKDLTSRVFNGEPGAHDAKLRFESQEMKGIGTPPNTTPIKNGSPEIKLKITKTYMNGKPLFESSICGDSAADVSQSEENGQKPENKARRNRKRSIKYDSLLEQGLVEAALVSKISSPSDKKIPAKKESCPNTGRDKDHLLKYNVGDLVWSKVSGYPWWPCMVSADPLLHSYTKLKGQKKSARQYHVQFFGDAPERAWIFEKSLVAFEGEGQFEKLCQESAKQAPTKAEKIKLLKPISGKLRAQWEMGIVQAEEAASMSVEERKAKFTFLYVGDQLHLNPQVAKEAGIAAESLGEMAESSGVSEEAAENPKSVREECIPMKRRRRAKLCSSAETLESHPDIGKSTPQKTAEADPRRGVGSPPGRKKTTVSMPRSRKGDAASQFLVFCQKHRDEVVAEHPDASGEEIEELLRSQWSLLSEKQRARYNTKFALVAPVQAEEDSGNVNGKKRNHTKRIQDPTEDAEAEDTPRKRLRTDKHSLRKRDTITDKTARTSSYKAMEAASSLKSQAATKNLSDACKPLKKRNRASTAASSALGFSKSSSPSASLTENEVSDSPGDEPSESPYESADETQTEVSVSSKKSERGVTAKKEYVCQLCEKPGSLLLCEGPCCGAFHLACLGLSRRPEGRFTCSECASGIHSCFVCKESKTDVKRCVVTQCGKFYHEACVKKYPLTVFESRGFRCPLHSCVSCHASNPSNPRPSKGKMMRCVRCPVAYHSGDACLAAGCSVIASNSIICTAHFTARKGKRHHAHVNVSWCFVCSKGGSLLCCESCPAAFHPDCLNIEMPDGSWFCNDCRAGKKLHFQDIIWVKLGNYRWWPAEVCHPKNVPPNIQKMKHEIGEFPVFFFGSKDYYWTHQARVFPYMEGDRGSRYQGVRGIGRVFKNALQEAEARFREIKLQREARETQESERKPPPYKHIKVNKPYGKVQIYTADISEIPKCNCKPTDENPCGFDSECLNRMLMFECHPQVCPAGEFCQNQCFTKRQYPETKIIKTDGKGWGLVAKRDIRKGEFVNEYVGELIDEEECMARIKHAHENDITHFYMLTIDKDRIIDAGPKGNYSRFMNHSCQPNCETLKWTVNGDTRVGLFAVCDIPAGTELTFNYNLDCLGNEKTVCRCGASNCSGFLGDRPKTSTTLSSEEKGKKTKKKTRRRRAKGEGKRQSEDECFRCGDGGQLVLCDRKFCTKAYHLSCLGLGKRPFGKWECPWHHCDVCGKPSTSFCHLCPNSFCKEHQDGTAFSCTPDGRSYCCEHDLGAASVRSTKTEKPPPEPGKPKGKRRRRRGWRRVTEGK

Fatty acid synthase [6] = target: T4, Fatty acid synthase (Homo sapiens, UniProt P49327); test: FAS thioesterase domain inhibitors, dose response, biochemical, endpoint fluorescence intensity, uHTS hits (AID 624327); format: functional;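 also: fluorescence from hydrolysis of an O-methyl fluorescein acyl ester substrate by the enzyme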
Fatty acid synthase [7] = target: T4, Fatty acid synthase; test: FAS thioesterase domain inhibitors, dose response, biochemical, kinetic fluorescence intensity (AID 624326); format: functional;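 also: rate of fluorescence rise from hydrolysis of a fluorogenic O-methyl fluorescein ester substrate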
BJ [8] = test: cytotoxicity toward BJ-TERT fibroblasts, dose response, cell-based, RAS-independent, luminescence (AID 1933); format: functional; details: Homo sapiens
BJ [9] = test: cells; format: functional, cell-based; details: Homo sapiens
BJ [10] = test: cytotoxicity toward BJ-TERT-LT-ST fibroblasts, dose response, cell-based, RAS-independent, luminescence (AID 1935); format: functional; details: Homo sapiens;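 also: BJ fibroblasts immortalized with TERT plus LT and ST oncogenes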
[11] = cytotoxicity toward DRD oncogenic fibroblasts, dose response, cell-based, non-viral oncogenic, luminescence (AID 1934); format: functional; details: Homo sapiens
[12] = cytotoxicity in HEK-293T cells, dose response, cytotoxicity control for TCR NF-kB inhibitor project, luminescence, T-cell screen hits (AID 489026); format: functional, cell-based;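 also: cells exposed to compound about 14 hours before the viability readout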
BJ [13] = test: cytotoxicity toward Ras-transformed BJeLR fibroblasts, dose response, cell-based, alamar blue fluorescence, cherrypicked samples (AID 2631); format: functional; details: Homo sapiens;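 also: confirmatory dose-response assay in RAS-dependent BJ fibroblasts engineered with TERT, LT and ST, with cytotoxicity read by fluorescence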
cells = format: functional, cell-based
[14] = target: T5, Nuclear receptor subfamily 0 group B member 1 (Homo sapiens, UniProt P51843); format: functional, cell-based;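 also: HEK293T cells transfected with SF-1 and DAX-1 plus StAR promoter luciferase reporter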
T5 sequence (P51843 whole entry): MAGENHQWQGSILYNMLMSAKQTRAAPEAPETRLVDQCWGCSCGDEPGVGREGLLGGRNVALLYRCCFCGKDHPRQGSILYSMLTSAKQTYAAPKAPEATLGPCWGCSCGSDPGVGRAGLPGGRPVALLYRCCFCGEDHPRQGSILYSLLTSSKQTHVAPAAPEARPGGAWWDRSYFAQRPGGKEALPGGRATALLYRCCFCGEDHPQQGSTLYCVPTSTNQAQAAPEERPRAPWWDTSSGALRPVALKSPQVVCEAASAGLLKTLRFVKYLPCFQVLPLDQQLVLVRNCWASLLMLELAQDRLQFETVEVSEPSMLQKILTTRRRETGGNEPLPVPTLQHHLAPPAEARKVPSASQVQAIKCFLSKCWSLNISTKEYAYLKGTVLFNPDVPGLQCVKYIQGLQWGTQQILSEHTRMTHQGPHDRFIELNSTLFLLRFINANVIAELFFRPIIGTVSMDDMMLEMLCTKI

[15] = target: T6, Heat shock factor protein 1 (Mus musculus, UniProt P38532); test: inhibition of MG132-induced HSE-luciferase signal, confirmation, cell-based, NIH3T3, luminescence, dose retest (AID 2382); format: functional;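 also: NIH3T3 fibroblasts with HSF1-driven luciferase reporter stressed by proteasome inhibitor MG132; luminescence from HSF1-driven luciferase expression after 8 hours of MG132 stress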
T6 sequence (P38532 whole entry): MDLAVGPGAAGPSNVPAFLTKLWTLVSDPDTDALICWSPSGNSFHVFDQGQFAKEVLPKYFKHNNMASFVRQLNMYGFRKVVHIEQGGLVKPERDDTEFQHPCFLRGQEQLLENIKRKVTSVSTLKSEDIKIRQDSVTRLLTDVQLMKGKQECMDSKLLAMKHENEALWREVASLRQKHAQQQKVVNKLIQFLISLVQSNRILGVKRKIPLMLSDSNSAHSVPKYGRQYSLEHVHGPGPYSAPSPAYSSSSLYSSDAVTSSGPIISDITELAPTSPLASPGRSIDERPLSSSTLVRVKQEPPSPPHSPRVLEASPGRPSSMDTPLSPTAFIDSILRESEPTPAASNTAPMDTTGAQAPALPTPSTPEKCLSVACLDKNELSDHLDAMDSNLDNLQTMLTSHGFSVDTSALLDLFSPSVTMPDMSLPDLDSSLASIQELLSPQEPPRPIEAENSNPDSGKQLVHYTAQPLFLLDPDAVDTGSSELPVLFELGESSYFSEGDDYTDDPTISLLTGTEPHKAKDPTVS

[16] = inhibitors of firefly luciferase expression or activity, dose response, H4 neuroglioma cells, luminescence (AID 1990); format: functional, cell-based
[17] = Luminescence Cell-Based Dose Response HTS to Identify Inhibitors of 5'UTR Stem-Loop Driven Prion Protein mRNA Translation in H4 Neuroglioblastoma Cells. [Related pubchem assays: 1827 (Project Summary), 1813 (Primary HTS)]; format: functional
[18] = inhibitors of SNCA 5'UTR-driven reporter translation, confirmation, H4 neuroglioma cells, luminescence (AID 1988); format: functional, cell-based
[19] = microbe, parasite or virus in culture; format: functional; details: Mycobacterium tuberculosis
Nonstructural protein 1 = Nonstructural protein 1 (Influenza A virus, UniProt Q194T2); format: functional, Influenza A virus (A/California/07/2009(H1N1))
Kallikrein-7 = Kallikrein-7 (Homo sapiens, UniProt P49862); test: Fluorescence Intensity-based biochemical primary high throughput dose response assay to identify activators of kallikrein-7 (K7) zymogen.
[20] = HEK293T cytotoxicity, dose response, cytotoxicity control for miR-122 modulator project, cell-based, inhibitor set, cherry-pick, set 2 (AID 720697); format: functional

T4 sequence (P49327 whole entry, the tested form may be a part): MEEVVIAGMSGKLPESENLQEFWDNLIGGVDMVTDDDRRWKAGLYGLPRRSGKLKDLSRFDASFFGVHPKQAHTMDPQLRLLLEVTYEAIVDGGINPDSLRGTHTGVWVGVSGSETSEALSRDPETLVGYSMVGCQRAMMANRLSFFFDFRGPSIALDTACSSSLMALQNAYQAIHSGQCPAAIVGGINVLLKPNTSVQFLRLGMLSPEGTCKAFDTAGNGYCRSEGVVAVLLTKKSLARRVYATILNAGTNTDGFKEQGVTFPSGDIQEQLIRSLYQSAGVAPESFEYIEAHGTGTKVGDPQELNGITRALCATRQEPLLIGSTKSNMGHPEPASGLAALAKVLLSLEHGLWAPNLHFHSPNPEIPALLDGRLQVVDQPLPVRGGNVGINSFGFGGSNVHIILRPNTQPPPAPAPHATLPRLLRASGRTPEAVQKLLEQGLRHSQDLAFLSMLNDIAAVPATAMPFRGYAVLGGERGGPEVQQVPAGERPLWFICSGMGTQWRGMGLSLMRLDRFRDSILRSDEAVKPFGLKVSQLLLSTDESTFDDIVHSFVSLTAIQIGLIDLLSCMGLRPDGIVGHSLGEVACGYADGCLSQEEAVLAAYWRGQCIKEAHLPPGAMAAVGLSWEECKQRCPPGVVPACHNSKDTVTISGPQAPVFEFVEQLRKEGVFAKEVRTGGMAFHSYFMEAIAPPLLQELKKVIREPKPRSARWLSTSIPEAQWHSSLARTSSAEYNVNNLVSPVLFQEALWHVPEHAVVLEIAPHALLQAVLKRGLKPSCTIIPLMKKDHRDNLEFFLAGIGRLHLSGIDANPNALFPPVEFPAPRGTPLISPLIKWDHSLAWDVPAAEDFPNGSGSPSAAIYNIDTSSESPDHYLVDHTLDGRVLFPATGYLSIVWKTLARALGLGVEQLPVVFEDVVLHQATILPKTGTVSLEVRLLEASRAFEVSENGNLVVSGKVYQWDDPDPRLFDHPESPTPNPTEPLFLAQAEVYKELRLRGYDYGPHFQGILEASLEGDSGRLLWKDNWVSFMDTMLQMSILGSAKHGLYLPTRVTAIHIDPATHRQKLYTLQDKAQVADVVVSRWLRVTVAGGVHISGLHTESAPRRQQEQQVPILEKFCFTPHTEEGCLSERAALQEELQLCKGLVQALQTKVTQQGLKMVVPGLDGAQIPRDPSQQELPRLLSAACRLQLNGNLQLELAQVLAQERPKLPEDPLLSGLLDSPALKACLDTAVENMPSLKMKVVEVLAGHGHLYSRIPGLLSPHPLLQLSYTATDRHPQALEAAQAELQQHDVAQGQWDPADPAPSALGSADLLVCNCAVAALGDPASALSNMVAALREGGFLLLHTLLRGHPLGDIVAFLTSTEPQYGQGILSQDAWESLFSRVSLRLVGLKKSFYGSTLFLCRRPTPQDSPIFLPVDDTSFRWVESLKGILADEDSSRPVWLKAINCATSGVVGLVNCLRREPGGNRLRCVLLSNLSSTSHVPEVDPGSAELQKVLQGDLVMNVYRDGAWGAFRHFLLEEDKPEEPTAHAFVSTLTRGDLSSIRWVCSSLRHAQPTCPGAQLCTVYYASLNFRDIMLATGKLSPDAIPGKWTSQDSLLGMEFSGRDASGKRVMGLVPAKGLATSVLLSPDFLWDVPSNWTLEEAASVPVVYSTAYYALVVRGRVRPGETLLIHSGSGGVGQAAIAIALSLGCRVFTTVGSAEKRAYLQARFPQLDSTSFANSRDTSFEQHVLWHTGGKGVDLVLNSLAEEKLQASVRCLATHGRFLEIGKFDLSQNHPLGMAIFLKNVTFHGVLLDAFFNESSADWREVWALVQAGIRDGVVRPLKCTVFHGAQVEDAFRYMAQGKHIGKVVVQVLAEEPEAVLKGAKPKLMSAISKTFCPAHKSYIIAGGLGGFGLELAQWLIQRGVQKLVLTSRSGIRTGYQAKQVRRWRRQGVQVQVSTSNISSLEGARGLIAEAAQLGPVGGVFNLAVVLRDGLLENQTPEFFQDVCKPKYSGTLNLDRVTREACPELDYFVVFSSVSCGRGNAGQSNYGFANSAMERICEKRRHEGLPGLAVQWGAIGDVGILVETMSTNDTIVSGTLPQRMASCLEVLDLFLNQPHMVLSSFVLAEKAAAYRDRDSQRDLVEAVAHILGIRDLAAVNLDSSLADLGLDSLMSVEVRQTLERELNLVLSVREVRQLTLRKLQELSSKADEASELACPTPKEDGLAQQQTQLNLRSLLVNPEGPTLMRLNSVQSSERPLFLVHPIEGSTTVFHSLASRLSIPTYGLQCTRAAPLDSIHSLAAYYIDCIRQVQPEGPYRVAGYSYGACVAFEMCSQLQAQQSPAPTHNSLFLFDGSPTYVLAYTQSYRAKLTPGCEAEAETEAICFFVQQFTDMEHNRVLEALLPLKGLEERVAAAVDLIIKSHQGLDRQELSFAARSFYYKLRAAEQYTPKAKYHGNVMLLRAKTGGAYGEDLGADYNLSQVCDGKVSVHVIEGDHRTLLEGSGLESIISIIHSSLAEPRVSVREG
Kallikrein-7, sequence (P49862 whole entry): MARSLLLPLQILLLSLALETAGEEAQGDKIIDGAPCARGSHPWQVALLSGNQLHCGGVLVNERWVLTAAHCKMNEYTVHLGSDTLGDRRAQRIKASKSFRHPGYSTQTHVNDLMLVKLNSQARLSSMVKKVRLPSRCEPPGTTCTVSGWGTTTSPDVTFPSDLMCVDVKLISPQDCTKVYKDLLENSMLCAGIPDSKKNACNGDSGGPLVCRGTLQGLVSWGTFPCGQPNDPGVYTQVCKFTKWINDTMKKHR
Nonstructural protein 1, sequence (Q194T2 whole entry): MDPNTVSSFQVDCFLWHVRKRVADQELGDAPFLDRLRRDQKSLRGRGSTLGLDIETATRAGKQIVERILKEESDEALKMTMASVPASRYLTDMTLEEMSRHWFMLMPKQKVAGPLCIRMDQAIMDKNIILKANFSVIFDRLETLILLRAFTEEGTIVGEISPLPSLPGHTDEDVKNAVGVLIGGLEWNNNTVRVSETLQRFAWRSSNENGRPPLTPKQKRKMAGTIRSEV

## C[n+]1ccc(/C=C/c2ccccc2O)c2ccccc21
[1]
  EC50: 753 nM (active)
[2]
  EC50: > 60 µM (not active)
[3]
  IC50: 178 µM (active)
[4]
  AC50: 19.1 µM (active)
[5]
  AC50: > 20 µM (inactive)

## O=C(COC(=O)c1cc([N+](=O)[O-])ccc1NCCO)Nc1cccc(S(=O)(=O)N2CCCC2)c1
Fatty acid synthase [6]
  IC50: 6.67 µM (active)
Fatty acid synthase [7]
  IC50: 4.57 µM (active)

## O=C(Nc1ccc([N+](=O)[O-])cc1)Nc1ccon1
BJ [8]
  EC50: 1.57 µM (active)
BJ [9]
  EC50: 12.1 µM (active)
BJ [10]
  EC50: 4.66 µM (active)
[11]
  EC50: 1.21 µM (active)
[12]
  IC50: > 80 µM (inactive)
BJ [13]
  EC50: < 104 nM (active)

## CCCC(C)C(=O)Nc1cc([N+](=O)[O-])ccc1Cl (centres undefined)
Fatty acid synthase [6]
  IC50: 12.2 µM (active)
Fatty acid synthase [7]
  IC50: 11.8 µM (active)

## Cn1cccc1C(=O)NCC1COc2ccccc2O1 (centres undefined)
cells
  IC50: > 67.5 µM (inactive)
[14]
  IC50: > 67.5 µM (inactive)

## Cc1cc(-n2c(C)c3c(C)nnc(C)c3c2C)ccc1N
[15]
  EC50: > 195 µM (not active)
[4]
  AC50: 8.66 µM (active)

## ClC1=C(Cl)C(Cl)=C(Cl)C1=C/C=C/c1ccccc1
[16]
  EC50: 3.75 µM (inconclusive)
BJ [8]
  EC50: 2.55 µM (inconclusive)
[17]
  EC50: 10.9 µM (active)
[18]
  EC50: 3.43 µM (active)
BJ [9]
  EC50: 2.98 µM (active)
[19]
  CC50: 7.07 µM (active)
BJ [10]
  EC50: 2.42 µM (inconclusive)
[11]
  EC50: 2.45 µM (active)
Nonstructural protein 1
  IC50: 33.6 µM (active)
BJ [13]
  EC50: 1250 nM (active)

## COc1ccc(-c2ccc3nnc(SCC(=O)N4CCCC4)n3n2)cc1
Kallikrein-7
  EC50: > 69.5 µM (inactive)

## CN1CCN(CCCNCc2cn(CCC#N)c3ccccc23)CC1
[3]
  IC50: 64.3 µM (active)
[4]
  AC50: 4.32 µM (active)

## Cc1cc(C(C)(C)C)cc(C)c1COC(=O)CN1C(=O)NC2(CCCC2)C1=O
Fatty acid synthase [6]
  IC50: 15.8 µM (active)
Fatty acid synthase [7]
  IC50: 13.2 µM (active)

## N#Cc1c(NC(=O)COC(=O)c2nccnc2N)sc2c1CCCC2
Kallikrein-7
  EC50: > 69.5 µM (inactive)

## c1ccc(CCCNCCCn2cnc3c(OCc4ccccc4)ncnc32)cc1
[20]
  AC50: 7.5 µM (active)

## COc1ccccc1C=C1CCc2ccccc2C1=O
cells
  IC50: > 67.5 µM (inactive)
[14]
  IC50: > 67.5 µM (inactive)

## COc1ccccc1-c1nnc2n1N=C(c1ccc3c(c1)OCO3)CS2
cells
  IC50: > 67.6 µM (inactive)
[14]
  IC50: > 67.6 µM (inactive)

## CO[C@@H]1CN(C)C(=O)c2cc(NC(=O)c3cccc(Oc4ccccc4)c3)ccc2OC[C@H](C)NC[C@@H]1C
[20]
  AC50: 15.1 µM (active)

## COc1ccc2c(c1)CCC/C2=N\NC(=O)c1ccoc1C
cells
  IC50: > 67.5 µM (inactive)
[14]
  IC50: > 67.5 µM (inactive)

## CCOc1cc(-c2nccc3cc(OC)c(OC)cc23)cc(OCC)c1OCC [OCTAVERINE]
[20]
  AC50: 1.89 µM (active)
